The values below come from ChEMBL document CHEMBL5678818, “Discovery of potent SOS1 inhibitors that block RAS activation via disruption of the RAS-SOS1 interaction” (Proc Natl Acad Sci U S A, 2019).

Test [1] addresses T1, Bone morphogenetic protein receptor type-2 (Homo sapiens) (UniProt Q13873).
T1 sequence (whole entry): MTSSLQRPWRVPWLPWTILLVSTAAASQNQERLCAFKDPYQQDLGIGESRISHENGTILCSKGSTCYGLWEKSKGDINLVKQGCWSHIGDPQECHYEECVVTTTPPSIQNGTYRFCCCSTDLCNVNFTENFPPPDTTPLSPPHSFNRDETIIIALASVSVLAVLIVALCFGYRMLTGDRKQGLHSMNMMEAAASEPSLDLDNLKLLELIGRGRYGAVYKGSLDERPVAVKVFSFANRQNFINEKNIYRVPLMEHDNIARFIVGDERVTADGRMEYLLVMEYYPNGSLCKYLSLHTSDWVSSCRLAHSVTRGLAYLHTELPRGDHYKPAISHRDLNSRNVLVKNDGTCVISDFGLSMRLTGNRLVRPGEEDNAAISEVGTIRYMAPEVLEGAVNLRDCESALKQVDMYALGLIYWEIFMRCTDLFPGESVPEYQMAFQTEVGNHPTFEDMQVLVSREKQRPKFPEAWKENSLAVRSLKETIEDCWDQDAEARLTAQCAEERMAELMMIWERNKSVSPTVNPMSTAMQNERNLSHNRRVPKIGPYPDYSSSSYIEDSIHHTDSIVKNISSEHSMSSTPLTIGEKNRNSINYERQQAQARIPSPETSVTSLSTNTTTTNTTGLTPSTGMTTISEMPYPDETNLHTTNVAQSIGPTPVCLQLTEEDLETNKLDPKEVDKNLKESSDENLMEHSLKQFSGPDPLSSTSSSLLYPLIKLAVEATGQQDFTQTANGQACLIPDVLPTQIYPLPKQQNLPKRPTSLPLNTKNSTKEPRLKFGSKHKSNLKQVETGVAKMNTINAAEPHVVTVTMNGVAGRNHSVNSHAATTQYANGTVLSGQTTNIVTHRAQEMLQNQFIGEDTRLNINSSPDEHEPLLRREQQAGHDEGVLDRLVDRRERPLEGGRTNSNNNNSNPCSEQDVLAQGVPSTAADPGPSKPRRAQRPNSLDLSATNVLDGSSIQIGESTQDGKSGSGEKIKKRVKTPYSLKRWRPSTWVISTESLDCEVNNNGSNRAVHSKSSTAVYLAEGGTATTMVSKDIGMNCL
The test can be described thus: Inhibition of BMPR2 (unknown origin) assessed as residual activity at 1000 nM by KINOMEscan analysis relative to control.

The target of test [2] is T2, Cyclin-G-associated kinase (Homo sapiens) (UniProt O14976).
T2 sequence (whole entry): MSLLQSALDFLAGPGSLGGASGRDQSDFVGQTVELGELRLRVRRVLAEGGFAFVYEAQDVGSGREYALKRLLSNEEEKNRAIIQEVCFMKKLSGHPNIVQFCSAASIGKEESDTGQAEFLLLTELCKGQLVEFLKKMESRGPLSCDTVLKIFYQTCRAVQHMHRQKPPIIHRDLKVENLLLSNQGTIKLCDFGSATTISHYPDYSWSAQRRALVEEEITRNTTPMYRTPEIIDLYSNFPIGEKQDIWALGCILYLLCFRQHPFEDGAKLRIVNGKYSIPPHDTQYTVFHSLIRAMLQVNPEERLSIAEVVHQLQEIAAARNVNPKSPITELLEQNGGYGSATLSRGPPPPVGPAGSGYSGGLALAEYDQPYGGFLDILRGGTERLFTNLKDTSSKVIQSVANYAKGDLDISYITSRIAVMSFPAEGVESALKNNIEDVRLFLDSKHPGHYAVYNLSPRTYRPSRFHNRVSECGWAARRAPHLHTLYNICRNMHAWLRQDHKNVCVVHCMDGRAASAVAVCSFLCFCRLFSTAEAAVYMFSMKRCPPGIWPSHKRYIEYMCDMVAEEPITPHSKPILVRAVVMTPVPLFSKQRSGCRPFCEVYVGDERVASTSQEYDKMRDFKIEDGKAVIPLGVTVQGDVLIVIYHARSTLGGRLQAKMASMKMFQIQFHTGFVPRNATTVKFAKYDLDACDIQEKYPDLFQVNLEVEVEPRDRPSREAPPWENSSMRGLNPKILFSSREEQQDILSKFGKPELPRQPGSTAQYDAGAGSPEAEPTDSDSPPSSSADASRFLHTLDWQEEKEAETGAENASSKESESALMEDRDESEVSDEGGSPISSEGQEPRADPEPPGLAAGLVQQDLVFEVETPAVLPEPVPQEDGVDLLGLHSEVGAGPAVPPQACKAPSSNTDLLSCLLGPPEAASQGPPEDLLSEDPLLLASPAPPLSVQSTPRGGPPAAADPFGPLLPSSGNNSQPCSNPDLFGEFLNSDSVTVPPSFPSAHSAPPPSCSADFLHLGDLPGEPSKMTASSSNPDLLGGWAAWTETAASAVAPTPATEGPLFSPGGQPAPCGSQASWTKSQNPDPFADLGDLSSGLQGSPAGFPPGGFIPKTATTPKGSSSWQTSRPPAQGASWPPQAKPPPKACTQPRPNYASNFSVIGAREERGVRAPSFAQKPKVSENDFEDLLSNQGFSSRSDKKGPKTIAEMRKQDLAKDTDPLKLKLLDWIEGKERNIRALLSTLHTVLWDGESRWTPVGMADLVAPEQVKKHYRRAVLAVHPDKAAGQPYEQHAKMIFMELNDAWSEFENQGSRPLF
Description: Inhibition of GAK (unknown origin) assessed as residual activity at 1000 nM by KINOMEscan analysis relative to control.

Test [3] addresses Mitogen-activated protein kinase kinase kinase 11 (Homo sapiens) (UniProt Q16584). The test can be described thus: Inhibition of MLK3 (unknown origin) assessed as residual activity at 1000 nM by KINOMEscan analysis relative to control.
The target in test [4] is Ribosomal protein S6 kinase alpha-3 (Homo sapiens) (UniProt P51812). The test can be described thus: Inhibition of N-terminal RSK2 kinetic domain 1 (unknown origin) assessed as residual activity at 1000 nM by KINOMEscan analysis relative to control.
In test [5] the target is Insulin receptor (Homo sapiens) (UniProt P06213). The test can be described thus: Inhibition of INSR (unknown origin) assessed as residual activity at 1000 nM by KINOMEscan analysis relative to control.
For test [6], the target named is BMP-2-inducible protein kinase (Homo sapiens) (UniProt Q9NSY1). The test can be described thus: Inhibition of BIKE (unknown origin) assessed as residual activity at 1000 nM by KINOMEscan analysis relative to control.
The test system of test [7] is Receptor-type tyrosine-protein kinase FLT3 (Homo sapiens), P36888 [N841I]. The test can be described thus: Inhibition of FLT3 N841I mutant (unknown origin) assessed as residual activity at 1000 nM by KINOMEscan analysis relative to control.
For test [8], the target named is Phosphatidylinositol 4-phosphate 5-kinase type-1 alpha (Homo sapiens) (UniProt Q99755). The test can be described thus: Inhibition of PIP5K1A (unknown origin) assessed as residual activity at 1000 nM by KINOMEscan analysis relative to control.
Sequence of Phosphatidylinositol 4-phosphate 5-kinase type-1 alpha (Homo sapiens) (Q99755 whole entry): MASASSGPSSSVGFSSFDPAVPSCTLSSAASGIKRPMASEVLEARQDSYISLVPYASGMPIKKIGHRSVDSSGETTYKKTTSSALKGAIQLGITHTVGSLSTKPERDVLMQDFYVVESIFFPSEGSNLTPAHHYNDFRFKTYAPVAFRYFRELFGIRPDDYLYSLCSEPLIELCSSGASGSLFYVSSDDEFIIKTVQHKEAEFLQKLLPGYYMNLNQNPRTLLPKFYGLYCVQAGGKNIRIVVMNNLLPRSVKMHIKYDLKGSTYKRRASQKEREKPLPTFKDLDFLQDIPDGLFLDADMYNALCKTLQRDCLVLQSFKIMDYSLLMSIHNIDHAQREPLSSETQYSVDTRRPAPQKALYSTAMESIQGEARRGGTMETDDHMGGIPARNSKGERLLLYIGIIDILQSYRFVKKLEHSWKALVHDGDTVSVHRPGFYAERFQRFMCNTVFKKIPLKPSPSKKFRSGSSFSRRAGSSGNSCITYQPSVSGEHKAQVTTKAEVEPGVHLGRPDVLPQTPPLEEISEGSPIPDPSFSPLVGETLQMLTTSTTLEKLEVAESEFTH

Sequence of Ribosomal protein S6 kinase alpha-3 (Homo sapiens) (P51812 whole entry, the tested form may be a part): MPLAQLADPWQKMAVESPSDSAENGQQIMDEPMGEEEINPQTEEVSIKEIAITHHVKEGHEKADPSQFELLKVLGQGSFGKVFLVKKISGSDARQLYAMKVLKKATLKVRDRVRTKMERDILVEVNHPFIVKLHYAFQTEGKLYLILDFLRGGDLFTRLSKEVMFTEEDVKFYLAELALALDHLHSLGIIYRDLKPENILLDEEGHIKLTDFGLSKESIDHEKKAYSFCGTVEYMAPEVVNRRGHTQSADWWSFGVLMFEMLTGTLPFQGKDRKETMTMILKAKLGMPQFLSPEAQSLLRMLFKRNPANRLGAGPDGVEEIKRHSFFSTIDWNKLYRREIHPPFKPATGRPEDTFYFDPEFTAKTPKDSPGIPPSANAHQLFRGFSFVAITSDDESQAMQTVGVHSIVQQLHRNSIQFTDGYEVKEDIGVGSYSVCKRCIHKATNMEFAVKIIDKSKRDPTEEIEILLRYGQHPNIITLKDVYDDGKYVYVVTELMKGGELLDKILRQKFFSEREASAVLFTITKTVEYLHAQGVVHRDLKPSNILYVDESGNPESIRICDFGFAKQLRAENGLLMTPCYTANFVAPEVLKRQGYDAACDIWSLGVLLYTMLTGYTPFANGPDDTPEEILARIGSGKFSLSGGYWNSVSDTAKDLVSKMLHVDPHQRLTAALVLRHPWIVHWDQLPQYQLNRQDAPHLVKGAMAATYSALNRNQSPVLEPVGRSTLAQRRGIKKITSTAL
Sequence of Insulin receptor (Homo sapiens) (P06213 28-758 limits assumed): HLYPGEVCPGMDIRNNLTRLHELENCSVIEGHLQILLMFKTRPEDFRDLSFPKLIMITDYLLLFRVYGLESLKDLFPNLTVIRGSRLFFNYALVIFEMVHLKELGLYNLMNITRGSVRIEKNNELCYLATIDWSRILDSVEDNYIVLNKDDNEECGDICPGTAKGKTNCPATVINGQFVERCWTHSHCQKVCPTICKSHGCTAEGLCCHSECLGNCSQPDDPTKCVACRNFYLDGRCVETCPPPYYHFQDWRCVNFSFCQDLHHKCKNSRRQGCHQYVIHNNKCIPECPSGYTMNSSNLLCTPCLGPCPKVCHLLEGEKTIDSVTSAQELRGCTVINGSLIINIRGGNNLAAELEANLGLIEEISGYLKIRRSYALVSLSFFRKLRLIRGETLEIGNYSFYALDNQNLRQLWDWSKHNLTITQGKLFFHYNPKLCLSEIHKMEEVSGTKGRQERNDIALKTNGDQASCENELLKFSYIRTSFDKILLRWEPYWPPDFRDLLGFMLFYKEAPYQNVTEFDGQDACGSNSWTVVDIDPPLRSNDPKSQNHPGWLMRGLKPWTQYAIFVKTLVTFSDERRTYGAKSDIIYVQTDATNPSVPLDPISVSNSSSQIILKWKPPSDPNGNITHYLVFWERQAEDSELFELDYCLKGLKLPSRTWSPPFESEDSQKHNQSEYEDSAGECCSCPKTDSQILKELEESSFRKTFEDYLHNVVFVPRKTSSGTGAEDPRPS
Sequence of Insulin receptor (Homo sapiens) (P06213 763-1382 limits assumed): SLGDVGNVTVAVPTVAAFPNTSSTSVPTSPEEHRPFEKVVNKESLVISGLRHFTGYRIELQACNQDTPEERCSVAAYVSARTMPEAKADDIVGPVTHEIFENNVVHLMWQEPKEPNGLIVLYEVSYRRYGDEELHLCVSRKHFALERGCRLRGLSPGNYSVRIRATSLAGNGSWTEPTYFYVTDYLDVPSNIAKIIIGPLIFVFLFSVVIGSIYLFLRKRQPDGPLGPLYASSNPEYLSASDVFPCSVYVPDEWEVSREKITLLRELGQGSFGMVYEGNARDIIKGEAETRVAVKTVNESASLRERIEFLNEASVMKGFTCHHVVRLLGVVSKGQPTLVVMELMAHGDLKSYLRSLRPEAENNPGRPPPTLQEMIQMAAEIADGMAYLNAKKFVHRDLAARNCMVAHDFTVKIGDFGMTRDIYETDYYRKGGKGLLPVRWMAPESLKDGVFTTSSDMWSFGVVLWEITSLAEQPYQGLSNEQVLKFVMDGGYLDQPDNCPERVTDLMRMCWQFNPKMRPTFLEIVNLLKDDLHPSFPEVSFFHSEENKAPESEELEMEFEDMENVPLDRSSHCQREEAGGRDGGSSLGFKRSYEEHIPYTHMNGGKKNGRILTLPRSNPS
Sequence of BMP-2-inducible protein kinase (Homo sapiens) (Q9NSY1 whole entry, looked up): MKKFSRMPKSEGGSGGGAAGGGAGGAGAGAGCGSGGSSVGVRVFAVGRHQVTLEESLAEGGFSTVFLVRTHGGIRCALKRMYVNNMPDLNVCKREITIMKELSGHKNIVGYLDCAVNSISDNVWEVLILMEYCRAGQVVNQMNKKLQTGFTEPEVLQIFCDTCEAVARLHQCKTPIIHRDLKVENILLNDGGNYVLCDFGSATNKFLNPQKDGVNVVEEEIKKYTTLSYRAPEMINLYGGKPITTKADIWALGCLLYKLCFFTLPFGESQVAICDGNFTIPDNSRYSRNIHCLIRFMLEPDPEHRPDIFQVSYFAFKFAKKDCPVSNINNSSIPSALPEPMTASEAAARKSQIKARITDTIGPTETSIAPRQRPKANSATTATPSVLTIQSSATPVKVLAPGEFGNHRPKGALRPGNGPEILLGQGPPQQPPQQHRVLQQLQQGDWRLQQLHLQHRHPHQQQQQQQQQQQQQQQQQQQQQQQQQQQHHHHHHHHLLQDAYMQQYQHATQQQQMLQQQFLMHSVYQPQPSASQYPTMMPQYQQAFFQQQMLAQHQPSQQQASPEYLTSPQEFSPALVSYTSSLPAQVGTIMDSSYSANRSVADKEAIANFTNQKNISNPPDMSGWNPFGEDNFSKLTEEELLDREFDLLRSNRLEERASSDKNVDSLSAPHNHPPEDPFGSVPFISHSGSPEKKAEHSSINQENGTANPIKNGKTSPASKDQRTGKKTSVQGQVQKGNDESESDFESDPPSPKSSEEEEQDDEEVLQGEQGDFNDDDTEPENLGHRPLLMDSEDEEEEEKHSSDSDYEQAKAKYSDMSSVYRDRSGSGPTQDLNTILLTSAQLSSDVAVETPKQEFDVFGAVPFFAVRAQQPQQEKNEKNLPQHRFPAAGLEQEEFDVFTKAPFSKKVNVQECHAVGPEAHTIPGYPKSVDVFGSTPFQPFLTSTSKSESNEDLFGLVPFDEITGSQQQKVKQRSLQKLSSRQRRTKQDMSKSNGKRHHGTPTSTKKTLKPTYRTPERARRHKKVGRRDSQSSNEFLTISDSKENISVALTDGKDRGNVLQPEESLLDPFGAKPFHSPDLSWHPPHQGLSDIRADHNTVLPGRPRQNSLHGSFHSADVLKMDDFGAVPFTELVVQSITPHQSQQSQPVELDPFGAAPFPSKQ
Sequence of Mitogen-activated protein kinase kinase kinase 11 (Homo sapiens) (Q16584 whole entry, looked up, the tested form may be a part): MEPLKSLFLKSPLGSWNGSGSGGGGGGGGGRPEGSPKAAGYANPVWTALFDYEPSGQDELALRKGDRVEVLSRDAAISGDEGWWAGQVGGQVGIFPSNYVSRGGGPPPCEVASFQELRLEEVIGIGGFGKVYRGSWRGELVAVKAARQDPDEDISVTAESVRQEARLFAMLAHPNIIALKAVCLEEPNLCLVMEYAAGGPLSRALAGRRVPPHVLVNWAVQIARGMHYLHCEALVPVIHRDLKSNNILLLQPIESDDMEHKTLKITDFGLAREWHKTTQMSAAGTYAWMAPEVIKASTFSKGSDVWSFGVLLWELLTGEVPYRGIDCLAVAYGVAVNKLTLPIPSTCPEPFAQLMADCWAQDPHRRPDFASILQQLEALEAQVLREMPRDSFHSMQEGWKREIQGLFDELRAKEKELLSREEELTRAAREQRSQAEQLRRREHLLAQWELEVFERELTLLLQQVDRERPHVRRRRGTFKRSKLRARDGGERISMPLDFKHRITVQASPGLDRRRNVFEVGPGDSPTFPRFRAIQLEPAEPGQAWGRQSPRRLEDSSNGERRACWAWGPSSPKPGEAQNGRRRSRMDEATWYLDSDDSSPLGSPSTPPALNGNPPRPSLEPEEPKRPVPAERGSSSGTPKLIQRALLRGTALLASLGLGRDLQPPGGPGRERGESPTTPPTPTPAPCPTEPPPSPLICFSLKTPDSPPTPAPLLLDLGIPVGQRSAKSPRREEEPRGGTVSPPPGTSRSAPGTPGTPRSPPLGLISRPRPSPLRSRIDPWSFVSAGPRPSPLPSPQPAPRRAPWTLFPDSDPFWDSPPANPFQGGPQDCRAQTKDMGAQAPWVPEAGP

For the compound `COc1cc2ncnc(N[C@H](C)c3cccc4ccccc34)c2cc1OC`, the Activity in test [1] was determined as 89%; in test [2], 59%; in test [3], 100%; in test [4], 95%; in test [5] it was 82%; in test [6], 100%. Moreover, the Activity was 100% in test [7] and 90% in test [8].

Regarding `COc1cc2nc(C)nc(N[C@H](C)c3cccc(-c4cn[nH]c4)c3)c2cc1OC`, the Activity in test [1] turned out to be 83%; in test [2], 96%; in test [3], 100%; in test [4] it was 60%; in test [5] it was 80%; in test [6], 71%. Also, the Activity in test [7] turned out to be 94%; in test [8], 93%.
